Numbering of substitutions follows the chain as printed.
Columns and labels:
Assay in all cases: Saturation radioligand binding with [3H] SQ 29,548, membranes
Conditions in all cases: picomoles of TP per milligram of total membrane protein, mean ± S.E
[1] = target: T1, TP A160T mutant (nsSNP variant) (Homo sapiens, UniProt P21731, A160T)
T1 construct: expressed in transfected cells; HEK293T (calcium assays)
T1 sequence (P21731 1-343 A160T): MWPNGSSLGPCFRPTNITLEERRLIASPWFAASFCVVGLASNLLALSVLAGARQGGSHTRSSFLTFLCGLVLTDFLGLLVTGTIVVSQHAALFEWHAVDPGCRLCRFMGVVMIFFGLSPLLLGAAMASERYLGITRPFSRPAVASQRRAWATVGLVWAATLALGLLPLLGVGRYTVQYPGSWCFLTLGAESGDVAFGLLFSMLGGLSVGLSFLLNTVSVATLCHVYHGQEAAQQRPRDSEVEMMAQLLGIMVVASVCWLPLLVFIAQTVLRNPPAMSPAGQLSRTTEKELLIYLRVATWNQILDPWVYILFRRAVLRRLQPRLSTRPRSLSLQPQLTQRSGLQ
Description: (§1) Amino acid substitutions were introduced into the synthetic TPα gene carried by the expression vector pMT4 as described previously, [29]. DNA sequences of all the mutated genes were verified by automated DNA sequencing. To minimize variations in transfection efficiency, the total amount transfected DNA was kept constant in all cases at 1 µg of DNA per 7×10^5 cells. The wild type TP or mutant genes were expressed in COS-1 cells using a DEAE-dextran based transient transfection method, [29], and in HEK293T cells using lipofectamine 2000 (Invitrogen). Except unless specified, the membranes prepared from COS-1 cells were used for radioligand binding assays and immunoblots. For intracellular calcium determination assays and immunofluorescence imaging, HEK293T cells were used. For transient transfections of HEK293T cells using the plasmid pMT4, lipofectamine 2000 (Invitrogen) mediated transfection was used as described by the manufacturer. Membranes were prepared using Buffers A and B and as described previously, [29]. The protein concentration in the resuspended membrane pellet was determined using a modified DC protein assay kit from Bio-Rad Laboratories (Hercules, CA).
(§2) These were carried out in Buffer C for 60 min at room temperature, using 2 to 20 µg of membrane protein and different concentrations of [^3H] […] Binding of [^3H] […] Competition binding assays were performed using 4 nM [^3H] […] Binding was terminated by filtering under vacuum on GF/A filters (Millipore). Filter-bound radioactivity was measured using a liquid scintillation counter. Equilibrium dissociation constants (Kd) were determined from saturation isotherms using PRISM software version 5.0 (GraphPad Software Inc, San Diego, CA, USA). The Ki values were calculated from the IC50, using the equation of Cheng and Prusoff by PRISM software version 5.0.

TP A160V mutant = target: T2, TP A160V mutant (Homo sapiens, UniProt P21731, A160V)
T2 construct: expressed in transfected cells; HEK293T (calcium assays)
T2 sequence (P21731 1-343 A160V): T1 sequence (P21731 1-343 A160T) with T160V
Description: as §1, §2

TP F114A mutant = target: T3, TP F114A mutant (Homo sapiens, UniProt P21731, F114A)
T3 construct: expressed in transfected cells; HEK293T (calcium assays)
T3 sequence (P21731 1-343 F114A): T1 sequence (P21731 1-343 A160T) with F114A, T160A
Description: as §1, §2

TP A160S mutant = target: T4, TP A160S mutant (Homo sapiens, UniProt P21731, A160S)
T4 construct: expressed in transfected cells; HEK293T (calcium assays)
T4 sequence (P21731 1-343 A160S): T1 sequence (P21731 1-343 A160T) with T160S
Description: as §1, §2

TP F107A mutant = target: T5, TP F107A mutant (Homo sapiens, UniProt P21731, F107A)
T5 construct: expressed in transfected cells; HEK293T (calcium assays)
T5 sequence (P21731 1-343 F107A): T1 sequence (P21731 1-343 A160T) with F107A, T160A
Description: as §1, §2

[2] = target: T6, WT-TP (wild type human thromboxane A2 receptor TPα) (Homo sapiens, UniProt P21731)
T6 construct: expressed in transfected cells; HEK293T (calcium assays)
T6 sequence (P21731 1-343): T1 sequence (P21731 1-343 A160T) with T160A
Description: as §1, §2

O=C(O)CCC/C=C\C[C@@H]1[C@H](CNNC(=O)Nc2ccccc2)[C@H]2CC[C@@H]1O2 [SQ 29,548]
Bmax, binding maximum of the ligand SQ 29,548 for the receptor [1]: 1.8 ± 0.4 pmol/mg
Bmax, binding maximum of the ligand SQ 29,548 for the receptor (TP A160V mutant): 1.9 ± 0.3 pmol/mg
Bmax, binding maximum of the ligand SQ 29,548 for the receptor (TP F114A mutant): 1.6 ± 0.3 pmol/mg
Bmax, binding maximum of the ligand SQ 29,548 for the receptor (TP A160S mutant): 5.8 ± 0.5 pmol/mg
Bmax, binding maximum of the ligand SQ 29,548 for the receptor (TP F107A mutant): 1.8 ± 0.2 pmol/mg
Bmax, binding maximum of the ligand SQ 29,548 for the receptor [2]: 3.8 ± 0.3 pmol/mg

Source: publication PMC3260207, “Site-Directed Mutations and the Polymorphic Variant Ala160Thr in the Human Thromboxane Receptor Uncover a Structural Role for Transmembrane Helix 4” (PLoS ONE, 2012)
